Read-outs that look alike come from different tables or passages of the source.
Columns and labels:
Type in all cases: biochemical
[1] = target: T1, panel of 60 human kinases (Homo sapiens, UniProt P24941); experiment: Radiolabeled ATP kinase assay, panel of 60 kinases (Table S5); settings: 0.1 μM, 10 μM ATP, read-out: % Enzyme Activity (relative to DSMO controls)
T1 construct: purchased Reaction Biology Corp
In short: (§1)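 Compounds at two concentrations, 0.1 μM and 0.5 μM, were screened for inhibition of 60 kinases in cell-free assays read out by radiolabeled ATP.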

[2] = target: T2, panel of 60 human kinases (Homo sapiens, UniProt Q9UQB9); experiment: as above; settings: Aurora C; 0.1 μM; 10 μM ATP; read-out: % Enzyme Activity (relative to DSMO controls)
T2 construct: purchased Reaction Biology Corp
T2 sequence (Q9UQB9 1-309): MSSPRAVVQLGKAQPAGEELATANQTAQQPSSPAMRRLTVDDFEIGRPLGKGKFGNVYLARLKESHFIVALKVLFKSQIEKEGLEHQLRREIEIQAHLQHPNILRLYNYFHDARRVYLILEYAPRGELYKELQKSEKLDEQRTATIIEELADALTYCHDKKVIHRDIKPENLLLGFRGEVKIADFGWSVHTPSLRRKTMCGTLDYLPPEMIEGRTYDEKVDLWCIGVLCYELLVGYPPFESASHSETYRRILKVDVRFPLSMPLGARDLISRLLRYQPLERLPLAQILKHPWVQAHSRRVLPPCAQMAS
In short: as §1

[3] = target: T3, panel of 60 human kinases (Homo sapiens, UniProt Q99683); experiment: as above; settings: ASK1/MAP3K5; 0.1 μM; 10 μM ATP; read-out: % Enzyme Activity (relative to DSMO controls)
T3 construct: purchased Reaction Biology Corp
T3 sequence (Q99683 1-1374): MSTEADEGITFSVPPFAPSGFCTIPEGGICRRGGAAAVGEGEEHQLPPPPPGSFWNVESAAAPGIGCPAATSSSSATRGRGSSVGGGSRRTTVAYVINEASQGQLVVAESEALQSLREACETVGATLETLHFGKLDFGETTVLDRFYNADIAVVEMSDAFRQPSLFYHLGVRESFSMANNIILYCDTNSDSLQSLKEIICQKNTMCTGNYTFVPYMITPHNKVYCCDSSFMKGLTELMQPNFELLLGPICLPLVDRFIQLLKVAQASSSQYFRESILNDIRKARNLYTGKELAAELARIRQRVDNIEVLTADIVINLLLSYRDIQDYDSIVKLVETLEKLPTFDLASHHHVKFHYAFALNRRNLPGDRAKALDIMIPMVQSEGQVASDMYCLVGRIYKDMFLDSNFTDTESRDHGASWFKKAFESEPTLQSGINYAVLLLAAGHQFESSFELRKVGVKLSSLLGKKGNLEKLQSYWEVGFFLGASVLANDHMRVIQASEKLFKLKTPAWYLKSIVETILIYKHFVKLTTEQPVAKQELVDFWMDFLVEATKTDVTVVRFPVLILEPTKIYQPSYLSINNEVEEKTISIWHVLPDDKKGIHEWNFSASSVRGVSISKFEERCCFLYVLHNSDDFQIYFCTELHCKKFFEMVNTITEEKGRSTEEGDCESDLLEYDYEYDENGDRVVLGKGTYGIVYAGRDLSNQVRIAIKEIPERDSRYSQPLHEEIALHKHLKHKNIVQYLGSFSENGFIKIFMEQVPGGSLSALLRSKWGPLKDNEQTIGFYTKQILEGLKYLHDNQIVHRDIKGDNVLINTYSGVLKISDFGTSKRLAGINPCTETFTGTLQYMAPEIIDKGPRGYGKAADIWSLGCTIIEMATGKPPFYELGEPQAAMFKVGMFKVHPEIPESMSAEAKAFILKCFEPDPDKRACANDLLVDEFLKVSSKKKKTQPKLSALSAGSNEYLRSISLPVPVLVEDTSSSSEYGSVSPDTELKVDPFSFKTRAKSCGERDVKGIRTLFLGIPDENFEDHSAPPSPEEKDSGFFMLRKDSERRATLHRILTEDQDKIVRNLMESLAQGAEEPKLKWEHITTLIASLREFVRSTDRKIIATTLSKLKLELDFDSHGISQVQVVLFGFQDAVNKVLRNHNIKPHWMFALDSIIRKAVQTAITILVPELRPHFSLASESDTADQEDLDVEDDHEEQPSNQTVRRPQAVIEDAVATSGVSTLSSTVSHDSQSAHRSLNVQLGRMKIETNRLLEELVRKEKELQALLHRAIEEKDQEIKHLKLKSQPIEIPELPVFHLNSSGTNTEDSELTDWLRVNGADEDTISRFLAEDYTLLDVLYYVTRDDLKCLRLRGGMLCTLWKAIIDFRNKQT
In short: as §1

[4] = target: T4, panel of 60 human kinases (Homo sapiens, UniProt Q16539); experiment: as above; settings: P38a/MAPK14; 0.1 μM; 10 μM ATP; read-out: % Enzyme Activity (relative to DSMO controls)
T4 construct: purchased Reaction Biology Corp
T4 sequence (Q16539 whole entry): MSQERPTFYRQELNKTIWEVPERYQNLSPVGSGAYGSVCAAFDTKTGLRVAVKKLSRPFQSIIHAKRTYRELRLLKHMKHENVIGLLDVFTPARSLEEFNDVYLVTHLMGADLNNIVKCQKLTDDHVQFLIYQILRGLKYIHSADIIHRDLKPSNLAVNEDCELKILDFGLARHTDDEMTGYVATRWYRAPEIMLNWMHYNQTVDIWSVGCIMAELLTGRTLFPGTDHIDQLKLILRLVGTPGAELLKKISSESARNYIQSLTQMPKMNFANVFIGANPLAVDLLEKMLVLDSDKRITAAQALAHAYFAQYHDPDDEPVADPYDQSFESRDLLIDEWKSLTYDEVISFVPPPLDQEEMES
In short: as §1

[5] = target: T5, panel of 60 human kinases (Homo sapiens, UniProt P53778); experiment: as above; settings: P38g; 0.1 μM; 10 μM ATP; read-out: % Enzyme Activity (relative to DSMO controls)
T5 construct: purchased Reaction Biology Corp
T5 sequence (P53778 1-367): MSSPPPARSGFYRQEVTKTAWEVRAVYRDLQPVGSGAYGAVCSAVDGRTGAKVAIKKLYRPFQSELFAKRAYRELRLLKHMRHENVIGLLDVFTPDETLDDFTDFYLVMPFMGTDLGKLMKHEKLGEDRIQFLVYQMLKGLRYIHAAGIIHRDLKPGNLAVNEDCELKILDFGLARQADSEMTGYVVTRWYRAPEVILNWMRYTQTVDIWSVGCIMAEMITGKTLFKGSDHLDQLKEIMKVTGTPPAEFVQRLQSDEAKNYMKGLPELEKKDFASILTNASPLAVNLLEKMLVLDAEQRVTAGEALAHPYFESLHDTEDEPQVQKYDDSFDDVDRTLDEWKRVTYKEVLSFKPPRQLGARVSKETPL
In short: as §1

MLK3/MAP3K11 = target: T6, MLK3/MAP3K11 (Homo sapiens, UniProt Q16584); experiment: Radiolabeled ATP kinase assay (Reaction Biology Corp.), MLK3; settings: for % Enzyme Activity Remaining (relative to DMSO controls), MLK3/MAP3K11, Data 1 / % Enzyme Activity Remaining (relative to DMSO controls), MLK3/MAP3K11, Data 2: [Cmpd] 0.1 μM, 10 μM ATP
T6 construct: purchased Reaction Biology Corp
T6 sequence (Q16584 whole entry): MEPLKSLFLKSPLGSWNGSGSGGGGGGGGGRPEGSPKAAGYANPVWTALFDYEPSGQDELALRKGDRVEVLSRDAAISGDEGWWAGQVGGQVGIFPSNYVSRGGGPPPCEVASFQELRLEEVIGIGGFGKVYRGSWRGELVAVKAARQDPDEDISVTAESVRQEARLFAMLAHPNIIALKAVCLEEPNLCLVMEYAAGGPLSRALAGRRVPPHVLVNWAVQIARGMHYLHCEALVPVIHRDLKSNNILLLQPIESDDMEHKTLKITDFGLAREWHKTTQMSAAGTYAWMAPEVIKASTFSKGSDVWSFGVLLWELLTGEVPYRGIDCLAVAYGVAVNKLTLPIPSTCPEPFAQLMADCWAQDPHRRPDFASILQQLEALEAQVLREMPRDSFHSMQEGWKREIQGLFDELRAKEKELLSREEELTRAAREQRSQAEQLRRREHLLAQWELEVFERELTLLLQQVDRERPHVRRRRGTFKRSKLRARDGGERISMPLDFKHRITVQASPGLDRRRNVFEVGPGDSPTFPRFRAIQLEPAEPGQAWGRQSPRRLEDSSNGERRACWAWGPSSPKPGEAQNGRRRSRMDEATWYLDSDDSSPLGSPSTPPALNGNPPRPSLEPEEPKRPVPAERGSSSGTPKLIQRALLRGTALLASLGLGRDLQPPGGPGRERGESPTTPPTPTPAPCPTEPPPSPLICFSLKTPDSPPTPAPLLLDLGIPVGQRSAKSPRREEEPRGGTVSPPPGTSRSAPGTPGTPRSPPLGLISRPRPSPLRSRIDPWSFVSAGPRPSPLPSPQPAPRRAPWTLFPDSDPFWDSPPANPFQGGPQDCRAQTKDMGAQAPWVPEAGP
Method: Meanwhile, the same analogs were analyzed in a radiolabeled ATP assay (10 μM ATP; Reaction Biology Corp.) to compare the extent to which they could inhibit the activity of HGK, MLK1, or MLK3 in a cell-free environment (Table S3 and S4).

Structure (SMILES) | remaining activity at 0.1 µM ([1]; CDK2/cyclin A1) [%] | remaining activity at 0.1 µM ([1]; CDK2/cyclin A) [%] | remaining activity at 0.1 µM ([1]; CDK2/cyclin E) [%] | remaining activity at 0.1 µM ([1]; CDK2/cyclin O) [%] | remaining activity at 0.1 µM [2] [%] | remaining activity at 0.1 µM [3] [%] | remaining activity at 0.1 µM [4] [%] | remaining activity at 0.1 µM [5] [%] | % Enzyme Activity Remaining (relative to DMSO controls), MLK3/MAP3K11, Data 1 (MLK3/MAP3K11) [%] | % Enzyme Activity Remaining (relative to DMSO controls), MLK3/MAP3K11, Data 2 (MLK3/MAP3K11) [%] | remaining activity at 0.1 µM (MLK3/MAP3K11; 0.1 μM) [%]
CN1CCN(Cc2ccc(-c3cnc4[nH]cc(-c5ccoc5)c4c3)cc2)CC1 [Compound 7w, 3-(Furan-3-yl)-5-(4-((4-methylpiperazin-1-yl)methyl)phenyl)-1H-pyrrolo[2,3-b]pyridine] | 88.6 | 91.1 | 92.4 | 80.2 | 94.3 | 96 | 110 | 116 | 75.10 | 76.98 | –
CN1CCN(Cc2ccc(-c3cnc4[nH]cc(-c5cccc(Cl)c5)c4c3)cc2)CC1 [Compound 7ad, 3-(3-Chlorophenyl)-5-(4-((4-methylpiperazin-1-yl)methyl)phenyl)-1H-pyrrolo[2,3-b]pyridine] | 97 | 87.4 | 96.2 | 75.1 | 104 | 95.4 | 105 | 108 | 37.50 | 38.21 | –
CN1CCN(Cc2ccc(-c3cnc4[nH]cc(-c5ccc6[nH]ccc6c5)c4c3)cc2)CC1 [Compound 1, 3-(1H-Indol-5-yl)-5-(4-((4-methylpiperazin-1-yl)methyl)phenyl)-1H-pyrrolo[2,3-b]pyridine, reference compound] | 83.6 | 83.7 | 97.9 | 72.5 | 82.8 | 90.8 | 108 | 99.3 | – | – | 10.5
CN1CCN(Cc2ccc(-c3cnc4[nH]cc(-c5ccc6c(c5)OCCO6)c4c3)cc2)CC1 [Compound 7d, 3-(2,3-Dihydrobenzo[b][1,4]dioxin-6-yl)-5-(4-((4-methylpiperazin-1-yl)methyl)phenyl)-1H-pyrrolo[2,3-b]pyridine] | 38.8 | 34.4 | 89.1 | 39 | 92.3 | 80.2 | 102 | 108 | 25.04 | 18.84 | –
CN1CCN(Cc2ccc(-c3cnc4[nH]cc(-c5ccccc5Cl)c4c3)cc2)CC1 [Compound 7as, 3-(2-Chlorophenyl)-5-(4-((4-methylpiperazin-1-yl)methyl)phenyl)-1H-pyrrolo[2,3-b]pyridine] | 65 | 69.5 | 88.5 | 51.2 | 94.2 | 87.6 | 113 | 109 | 49.99 | 51.55 | –

From US12227500B2, “Substituted pyrrolo[2,3-b]pyridines for suppressing toxic endoplasmic reticulum stress” (THE TRUSTEES OF COLUMBIA UNIVERSITY IN THE CITY OF NEW YORK, priority 2018, dated 2025)
